The source made the active and inactive calls. No cut-off for these calls is given here.
Legend:
Macrophage cell line [1] = assay: Cytotoxicity against human PBMC-differentiated macrophages treated for 24 hrs followed by compound washout and measured after 48 hrs by MTT assay; format: cell-based
Macrophage cell line [2] = assay: Antiinflammatory activity in human PBMC-differentiated macrophages assessed as inhibition of LPS-induced prostaglandin production at 0.01 to 10 uM measured after 24 hrs by ELISA; format: functional, cell-based
Macrophage cell line [3] = assay: Induction of TNFalpha production in human PBMC-differentiated macrophages after 24 hrs by ELISA; format: cell-based
Macrophage cell line [4] = assay: Induction of IL-8 production in human PBMC-differentiated macrophages after 24 hrs by ELISA; format: cell-based
Macrophage cell line [5] = assay: Induction of IL-1beta production in human PBMC-differentiated macrophages after 24 hrs by ELISA; format: cell-based
Macrophage cell line [6] = assay: Induction of prostaglandin production in human PBMC-differentiated macrophages after 24 hrs by ELISA; format: cell-based
Staphylococcus aureus [7] = assay: Toxicity in Staphylococcus aureus ATCC 33592 up to 32 uM measured after 16 hrs; format: organism-based
Streptococcus pyogenes [8] = assay: Toxicity in Streptococcus pyogenes ATCC 14289 up to 32 uM measured after 16 hrs; format: organism-based
Enterococcus faecium [9] = assay: Toxicity in Enterococcus faecium ATCC 700221 up to 32 uM measured after 16 hrs; format: organism-based; conditions: in vitro
Escherichia coli [10] = assay: Toxicity in Escherichia coli ATCC 43894 up to 32 uM measured after 16 hrs; format: organism-based
Staphylococcus aureus [11] = assay: Potentiation of methicillin-induced antibacterial activity against Staphylococcus aureus ATCC 33592 assessed as minimum modulatory concentration up to 32 uM measured after 16 hrs in presence of MIC/4 methicillin; format: functional; conditions: ATCC 33592, 16 h, read-out: MEC
Staphylococcus aureus [12] = assay: Potentiation of tetracycline-induced antibacterial activity against Staphylococcus aureus ATCC 33592 assessed as minimum modulatory concentration up to 32 uM measured after 16 hrs in presence of MIC/4 tetracycline; format: functional; conditions: ATCC 33592, 16 h, read-out: MEC
Streptococcus pyogenes [13] = assay: Potentiation of methicillin-induced antibacterial activity against Streptococcus pyogenes ATCC 14289 assessed as minimum modulatory concentration up to 32 uM measured after 16 hrs in presence of MIC/4 methicillin; format: functional; conditions: ATCC 14289, 16 h, read-out: MEC
Streptococcus pyogenes [14] = assay: Potentiation of ciprofloxacin-induced antibacterial activity against Streptococcus pyogenes ATCC 14289 assessed as minimum modulatory concentration up to 32 uM measured after 16 hrs in presence of MIC/4 ciprofloxacin; format: functional; conditions: ATCC 14289, 16 h, read-out: MEC
Streptococcus pyogenes [15] = assay: Potentiation of tetracycline-induced antibacterial activity against Streptococcus pyogenes ATCC 14289 assessed as minimum modulatory concentration up to 32 uM measured after 16 hrs in presence of MIC/4 tetracycline; format: functional; conditions: ATCC 14289, 16 h, read-out: MEC
Klebsiella pneumoniae [16] = assay: Potentiation of methicillin-induced antibacterial activity against Klebsiella pneumoniae ATCC 13883 assessed as minimum modulatory concentration up to 32 uM measured after 16 hrs in presence of MIC/4 methicillin; format: functional; conditions: ATCC 13883, 16 h, read-out: MEC
Klebsiella pneumoniae [17] = assay: Potentiation of geneticin-induced antibacterial activity against Klebsiella pneumoniae ATCC 13883 assessed as minimum modulatory concentration up to 32 uM measured after 16 hrs in presence of MIC/4 geneticin; format: functional; conditions: ATCC 13883, 16 h, read-out: MEC
Klebsiella pneumoniae [18] = assay: Potentiation of ciprofloxacin-induced antibacterial activity against Klebsiella pneumoniae ATCC 13883 assessed as minimum modulatory concentration up to 32 uM measured after 16 hrs in presence of MIC/4 ciprofloxacin; format: functional; conditions: ATCC 13883, 16 h, read-out: MEC
Klebsiella pneumoniae [19] = assay: Potentiation of tetracycline-induced antibacterial activity against Klebsiella pneumoniae ATCC 13883 assessed as minimum modulatory concentration up to 32 uM measured after 16 hrs in presence of MIC/4 tetracycline; format: functional; conditions: ATCC 13883, 16 h, read-out: MEC
Klebsiella pneumoniae [20] = assay: Potentiation of erythromycin-induced antibacterial activity against Klebsiella pneumoniae ATCC 13883 assessed as minimum modulatory concentration up to 32 uM measured after 16 hrs in presence of MIC/4 erythromycin; format: functional; conditions: ATCC 13883, 16 h, read-out: MEC
Enterococcus faecium [21] = assay: Potentiation of geneticin-induced antibacterial activity against Enterococcus faecium ATCC 700221 assessed as minimum modulatory concentration up to 32 uM measured after 16 hrs in presence of MIC/4 geneticin; format: functional; conditions: ATCC 700221, 16 h, read-out: MEC
Enterococcus faecium [22] = assay: Potentiation of ciprofloxacin-induced antibacterial activity against Enterococcus faecium ATCC 700221 assessed as minimum modulatory concentration up to 32 uM measured after 16 hrs in presence of MIC/4 ciprofloxacin; format: functional; conditions: ATCC 700221, 16 h, read-out: MEC
Enterococcus faecium [23] = assay: Potentiation of tetracycline-induced antibacterial activity against Enterococcus faecium ATCC 700221 assessed as minimum modulatory concentration up to 32 uM measured after 16 hrs in presence of MIC/4 tetracycline; format: functional; conditions: ATCC 700221, 16 h, read-out: MEC
Enterococcus faecium [24] = assay: Potentiation of erythromycin-induced antibacterial activity against Enterococcus faecium ATCC 700221 assessed as minimum modulatory concentration up to 32 uM measured after 16 hrs in presence of MIC/4 erythromycin; format: functional; conditions: ATCC 700221, 16 h, read-out: MEC
Pseudomonas aeruginosa [25] = assay: Potentiation of methicillin-induced antibacterial activity against Pseudomonas aeruginosa ATCC BAA-2108 assessed as minimum modulatory concentration up to 32 uM measured after 16 hrs in presence of MIC/4 methicillin; format: functional; conditions: ATCC BAA-2108, 16 h, read-out: MEC
Pseudomonas aeruginosa [26] = assay: Potentiation of geneticin-induced antibacterial activity against Pseudomonas aeruginosa ATCC BAA-2108 assessed as minimum modulatory concentration up to 32 uM measured after 16 hrs in presence of MIC/4 geneticin; format: functional; conditions: ATCC BAA-2108, 16 h, read-out: MEC
Pseudomonas aeruginosa [27] = assay: Potentiation of ciprofloxacin-induced antibacterial activity against Pseudomonas aeruginosa ATCC BAA-2108 assessed as minimum modulatory concentration up to 32 uM measured after 16 hrs in presence of MIC/4 ciprofloxacin; format: functional; conditions: ATCC BAA-2108, 16 h, read-out: MEC
Pseudomonas aeruginosa [28] = assay: Potentiation of tetracycline-induced antibacterial activity against Pseudomonas aeruginosa ATCC BAA-2108 assessed as minimum modulatory concentration up to 32 uM measured after 16 hrs in presence of MIC/4 tetracycline; format: functional; conditions: ATCC BAA-2108, 16 h, read-out: MEC
Pseudomonas aeruginosa [29] = assay: Potentiation of erythromycin-induced antibacterial activity against Pseudomonas aeruginosa ATCC BAA-2108 assessed as minimum modulatory concentration up to 32 uM measured after 16 hrs in presence of MIC/4 erythromycin; format: functional; conditions: ATCC BAA-2108, 16 h, read-out: MEC
Escherichia coli [30] = assay: Potentiation of methicillin-induced antibacterial activity against Escherichia coli ATCC 43894 assessed as minimum modulatory concentration up to 32 uM measured after 16 hrs in presence of MIC/4 methicillin; format: functional; conditions: ATCC 43894, 16 h, read-out: MEC
Escherichia coli [31] = assay: Potentiation of geneticin-induced antibacterial activity against Escherichia coli ATCC 43894 assessed as minimum modulatory concentration up to 32 uM measured after 16 hrs in presence of MIC/4 geneticin; format: functional; conditions: ATCC 43894, 16 h, read-out: MEC
Escherichia coli [32] = assay: Potentiation of ciprofloxacin-induced antibacterial activity against Escherichia coli ATCC 43894 assessed as minimum modulatory concentration up to 32 uM measured after 16 hrs in presence of MIC/4 ciprofloxacin; format: functional; conditions: ATCC 43894, 16 h, read-out: MEC
Escherichia coli [33] = assay: Potentiation of tetracycline-induced antibacterial activity against Escherichia coli ATCC 43894 assessed as minimum modulatory concentration up to 32 uM measured after 16 hrs in presence of MIC/4 tetracycline; format: functional; conditions: ATCC 43894, 16 h, read-out: MEC
Escherichia coli [34] = assay: Potentiation of erythromycin-induced antibacterial activity against Escherichia coli ATCC 43894 assessed as minimum modulatory concentration up to 32 uM measured after 16 hrs in presence of MIC/4 erythromycin; format: functional; conditions: ATCC 43894, 16 h, read-out: MEC

Row | Compound | IC50 (Macrophage cell line [1]) [µM] | inhibition (Macrophage cell line [2]) | Activity (Macrophage cell line [3]) | Activity (Macrophage cell line [4]) | Activity (Macrophage cell line [5]) | Activity (Macrophage cell line [6]) | Activity (Staphylococcus aureus [7]) | Activity (Streptococcus pyogenes [8]) | Activity (Enterococcus faecium [9]) | Activity (Escherichia coli [10]) | minimal effective concentration (Staphylococcus aureus [11]) [µM] | minimal effective concentration (Staphylococcus aureus [12]) [µM] | minimal effective concentration (Streptococcus pyogenes [13]) [µM] | minimal effective concentration (Streptococcus pyogenes [14]) [µM] | minimal effective concentration (Streptococcus pyogenes [15]) [µM] | minimal effective concentration (Klebsiella pneumoniae [16]) [µM] | minimal effective concentration (Klebsiella pneumoniae [17]) [µM] | minimal effective concentration (Klebsiella pneumoniae [18]) [µM] | minimal effective concentration (Klebsiella pneumoniae [19]) [µM] | minimal effective concentration (Klebsiella pneumoniae [20]) [µM] | also measured
1 | C[n+]1ccc(C(=O)[O-])c(O)c1Cc1ccccc1 | > 100 | inactive | Non-Toxic | Non-Toxic | Non-Toxic | Non-Toxic | Non-Toxic | Non-Toxic | Non-Toxic | Non-Toxic | > 32 | > 32 | > 32 | > 32 | > 32 | > 32 | > 32 | > 32 | > 32 | > 32 | minimal effective concentration (Enterococcus faecium [21]): > 32 µM; minimal effective concentration (Enterococcus faecium [22]): > 32 µM; minimal effective concentration (Enterococcus faecium [23]): > 32 µM; minimal effective concentration (Enterococcus faecium [24]): > 32 µM; minimal effective concentration (Pseudomonas aeruginosa [25]): > 32 µM; minimal effective concentration (Pseudomonas aeruginosa [26]): > 32 µM; minimal effective concentration (Pseudomonas aeruginosa [27]): > 32 µM; minimal effective concentration (Pseudomonas aeruginosa [28]): > 32 µM; minimal effective concentration (Pseudomonas aeruginosa [29]): > 32 µM; minimal effective concentration (Escherichia coli [30]): > 32 µM; minimal effective concentration (Escherichia coli [31]): > 32 µM; minimal effective concentration (Escherichia coli [32]): > 32 µM; minimal effective concentration (Escherichia coli [33]): > 32 µM; minimal effective concentration (Escherichia coli [34]): > 32 µM
2 | COc1cccc(-c2cc(C(=O)O)c(O)cn2)c1 | 88.6 | inactive | Non-Toxic | Non-Toxic | Non-Toxic | Non-Toxic | Non-Toxic | Non-Toxic | Non-Toxic | Non-Toxic | 16 | > 32 | > 32 | > 32 | > 32 | > 32 | > 32 | > 32 | > 32 | > 32 | minimal effective concentration (Enterococcus faecium [21]): > 32 µM; minimal effective concentration (Enterococcus faecium [22]): > 32 µM; minimal effective concentration (Enterococcus faecium [23]): > 32 µM; minimal effective concentration (Enterococcus faecium [24]): > 32 µM; minimal effective concentration (Pseudomonas aeruginosa [25]): > 32 µM; minimal effective concentration (Pseudomonas aeruginosa [26]): > 32 µM; minimal effective concentration (Pseudomonas aeruginosa [27]): > 32 µM; minimal effective concentration (Pseudomonas aeruginosa [28]): > 32 µM; minimal effective concentration (Pseudomonas aeruginosa [29]): > 32 µM; minimal effective concentration (Escherichia coli [30]): > 32 µM; minimal effective concentration (Escherichia coli [31]): > 32 µM; minimal effective concentration (Escherichia coli [32]): > 32 µM; minimal effective concentration (Escherichia coli [33]): > 32 µM; minimal effective concentration (Escherichia coli [34]): > 32 µM

From ChEMBL document CHEMBL4257522, “Synthesis and preliminary anti-inflammatory and anti-bacterial evaluation of some diflunisal aza-analogs” (Medchemcomm, 2018)
